Active and inactive are the calls of the source. No cut-off for these calls is given here.

For assay [1], the target named is T1, Taste receptor type 2 member 13 (Homo sapiens) (UniProt Q9NYV9).
T1 sequence (whole entry): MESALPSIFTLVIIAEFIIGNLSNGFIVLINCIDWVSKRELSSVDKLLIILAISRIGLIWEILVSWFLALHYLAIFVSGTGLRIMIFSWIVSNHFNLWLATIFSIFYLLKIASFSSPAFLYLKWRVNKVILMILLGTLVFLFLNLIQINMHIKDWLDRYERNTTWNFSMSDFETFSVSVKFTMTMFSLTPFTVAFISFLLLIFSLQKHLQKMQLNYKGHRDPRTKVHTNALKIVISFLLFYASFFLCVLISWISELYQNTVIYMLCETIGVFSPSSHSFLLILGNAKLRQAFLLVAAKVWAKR
Description: Agonist activity at recombinant human N-terminal rat ST3 receptor-fused TAS2R13 expressed in HEK293T cells co-expressing Galpha16gust44 assessed as increase in intracellular calcium level at 100 uM by FLIPR assay. It counts as functional, cell-based. (In general: A change in cytosolic calcium serves as a functional read-out for many receptors and channels.)

For assay [2], the target named is Taste receptor type 2 member 41 (Homo sapiens) (UniProt P59536). Put plainly: Agonist activity at recombinant human N-terminal rat ST3 receptor-fused TAS2R41 expressed in HEK293T cells co-expressing Galpha16gust44 assessed as increase in intracellular calcium level at 100 uM by FLIPR assay. It counts as functional, cell-based.
Chain of Taste receptor type 2 member 41 (Homo sapiens) (P59536 whole entry, the tested form may be a part): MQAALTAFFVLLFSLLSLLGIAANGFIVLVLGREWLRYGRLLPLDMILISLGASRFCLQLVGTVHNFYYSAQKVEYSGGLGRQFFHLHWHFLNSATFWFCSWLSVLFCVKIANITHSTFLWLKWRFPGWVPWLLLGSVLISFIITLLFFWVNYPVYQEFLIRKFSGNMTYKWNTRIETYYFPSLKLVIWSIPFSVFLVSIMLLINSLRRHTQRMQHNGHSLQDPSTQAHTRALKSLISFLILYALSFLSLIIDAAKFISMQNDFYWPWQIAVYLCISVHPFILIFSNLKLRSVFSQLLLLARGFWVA

As to `C/C1=C\C[C@H](O)/C(C)=C/[C@H]2OC(=O)[C@@H](C)[C@@H]2CC1`, the result in assay [1] and in assay [2] was inactive.

Values taken from ChEMBL document CHEMBL4418912, “Methods of identifying antagonists of the hTAS2R46 bitter taste receptor” (2014).
